Results as given in EPA's ToxValDB 9.5.
Where “and” joins values, the source holds several entries; their conditions need not be identical. Equal entries are not always repeated.

Columns and labels:
Oryctolagus sp. = conditions: duration: 12 days, inhalation, New Zealand
Rattus norvegicus = conditions: chronic, duration: 2 years, inhalation; for LOAEL / NOAEL: Crl:CD BR; for NEL / LEL: Crl:CD(SD) BR
[1] = reproduction developmental, F, generation: P0, P0: Developmental: Uterus: Implantation + P0: Developmental: Uterus: Pre-Implantation Loss + P0: Developmental: Uterus: Resorptions, Mean/…
[2] = reproduction developmental, F, generation: P0, P0: Developmental: Uterus: Resorptions, Mean/Litter + P0: General Toxicity: Whole Body: Body Weight Change + P0: General Toxicity: Whole …
[3] = reproduction developmental, F, generation: P0, P0: Whole Body: Clinical Observations
[4] = F, Developmental: Whole Body: Survival + General Toxicity: Whole Body: Body Weight Change + Hepatic: Liver: Liver Histopathology + Hepatic: …
[5] = F, Blood: Eosinophils + Blood: Monocytes
[6] = F, Blood: Sorbitol Dehydrogenase (SDH), Blood
[7] = F, Liver: Liver Weight, Absolute
[8] = F, Mammary Gland: Mammary Gland Fibroadenoma
[9] = M, Developmental: Whole Body: Survival + General Toxicity: Whole Body: Body Weight Change + Hepatic: Liver: Focal Liver Necrosis + Hepatic: …
[10] = M, Blood: Monocytes + Liver: Aspartate Aminotransferase (AST), Blood
[11] = M, Heart: Heart Weight, Absolute + Liver: Focal Liver Necrosis + Lung: Cholesterol Cleft/Granuloma in Lung
[12] = M, Kidney: Renal Tubular Pigment + Whole Body: Body Weight Change + Whole Body: Terminal Body Weight, Absolute

FC(Cl)C(F)(F)F (stereo not drawn) [2-Chloro-1,1,1,2-tetrafluoroethane]
NOAEL (Oryctolagus sp.; developmental, M/F, generation: F1, F1: Developmental: Uterus: Dead Fetuses + F1: Developmental: Uterus: Fetuses, Live + F1: Developmental: Whole Body: Body Weight, Fetal + F1…): 279000 mg/m3 | NOAEL (Oryctolagus sp.; developmental, M/F, generation: F1, F1: Developmental: Whole Body: External Abnormalities + F1: Developmental: Whole Body: Live Pups Born + F1: Developmental: Whole Body: Pup …): 27900 mg/m3 and 83700 mg/m3 | NEL (Oryctolagus sp.; developmental, M/F, generation: F1, F1: Uterus: Fetuses, Dead + F1: Uterus: Fetuses, Live + F1: Whole Body: Body Weight, Fetal + F1: Whole Body: External Abnormalities): 279000 mg/m3 | NEL (Oryctolagus sp.; developmental, M/F, generation: F1, F1: Whole Body: External Abnormalities + F1: Whole Body: Live Pups Born + F1: Whole Body: Pup Weight Relative to Litter + F1: Whole Body: …): 279000 mg/m3 | NOAEL (Oryctolagus sp.; reproduction developmental, F, generation: P0, P0: Developmental: Uterus: Implantation + P0: Developmental: Uterus: Number of Viable Fetuses + P0: Developmental: Uterus: Pre-Implantation …): 279000 mg/m3 | LOAEL (Oryctolagus sp.; [1]): 83700 mg/m3 | NOAEL (Oryctolagus sp.; [1]): 27900 mg/m3 | NOAEL (Oryctolagus sp.; reproduction developmental, F, generation: P0, P0: Developmental: Uterus: Implantation + P0: Developmental: Uterus: Pre-Implantation Loss + P0: Reproductive: Ovary: Corpora Lutea): 279000 mg/m3 | LOAEL (Oryctolagus sp.; [2]): 279000 mg/m3 | NOAEL (Oryctolagus sp.; [2]): 83700 mg/m3 | NEL (Oryctolagus sp.; reproduction developmental, F, generation: P0, P0: Liver: Liver Weight, Absolute + P0: Liver: Liver Weight, Relative + P0: Ovary: Corpora Lutea + P0: Uterus: Implantation + P0: Uterus: …): 279000 mg/m3 | NEL (Oryctolagus sp.; reproduction developmental, F, generation: P0, P0: Ovary: Corpora Lutea + P0: Uterus: Implantation + P0: Uterus: Pre-Implantation Loss + P0: Uterus: Resorptions, Mean/Litter + P0: Whole …): 279000 mg/m3 | LEL (Oryctolagus sp.; [3]): 279000 mg/m3 | NEL (Oryctolagus sp.; [3]): 83700 mg/m3 | LOAEL (Rattus norvegicus; F, Cardiovascular: Aorta: Aorta Histopathology + Cardiovascular: Heart: Heart Histopathology + Cardiovascular: Heart: Heart Weight, Absolute + …): 279000 mg/m3 | LOAEL (Rattus norvegicus; [4]): 279000 mg/m3 | NOAEL (Rattus norvegicus; [4]): 55800 mg/m3 | LOAEL (Rattus norvegicus; F, Hepatic: Blood: Globulin (G) + Hepatic: Liver: Alanine Aminotransferase (ALT) + Hepatic: Liver: Albumin (A) + Hepatic: Liver: Alkaline …): 11200 mg/m3 | NEL (Rattus norvegicus; F, Adrenal: Adrenal Gland Histopathology + Adrenal: Adrenal Gland Weight, Absolute + Aorta: Aorta Histopathology + Brain: Brain Histopathology…): 279000 mg/m3 | NEL (Rattus norvegicus; F, Blood: Abnormal Lymphocytes + Blood: Bands + Blood: Basophils + Blood: Calcium (CA), Blood + Blood: Globulin (G), Blood + Blood: Glucose (…): 279000 mg/m3 | LEL (Rattus norvegicus; F, Blood: Chloride (CL), Blood + Kidney: Creatine Kinase (CK), Blood + Kidney: Creatinine (CREAT), Blood): 11200 mg/m3 | LEL (Rattus norvegicus; [5]): 55800 mg/m3 | NEL (Rattus norvegicus; [5]): 11200 mg/m3 | LEL (Rattus norvegicus; [6]): 279000 mg/m3 | NEL (Rattus norvegicus; [6]): 55800 mg/m3 | LEL (Rattus norvegicus; [7]): 55800 mg/m3 | NEL (Rattus norvegicus; [7]): 11200 mg/m3 | LEL (Rattus norvegicus; [8]): 279000 mg/m3 | NEL (Rattus norvegicus; [8]): 55800 mg/m3 | LEL (Rattus norvegicus; F, Whole Body: Body Weight Change + Whole Body: Terminal Body Weight, Absolute): 11200 mg/m3 | LOAEL (Rattus norvegicus; M, Cardiovascular: Aorta: Aorta Histopathology + Cardiovascular: Heart: Heart Histopathology + Cardiovascular: Heart: Heart Weight, Absolute + …): 279000 mg/m3 | LOAEL (Rattus norvegicus; [9]): 279000 mg/m3 | NOAEL (Rattus norvegicus; [9]): 55800 mg/m3 | LOAEL (Rattus norvegicus; M, Hepatic: Blood: Globulin (G) + Hepatic: Liver: Alanine Aminotransferase (ALT) + Hepatic: Liver: Albumin (A) + Hepatic: Liver: Alkaline …): 11200 mg/m3 | NEL (Rattus norvegicus; M, Adrenal: Adrenal Gland Histopathology + Adrenal: Adrenal Gland Weight, Absolute + Aorta: Aorta Histopathology + Brain: Brain Histopathology…): 279000 mg/m3 | NEL (Rattus norvegicus; M, Blood: Abnormal Lymphocytes + Blood: Bands + Blood: Basophils + Blood: Calcium (CA), Blood + Blood: Eosinophils + Blood: Globulin (G), Blood…): 279000 mg/m3 | LEL (Rattus norvegicus; M, Blood: Chloride (CL), Blood + Liver: Alanine Aminotransferase (ALT), Blood): 11200 mg/m3 | LEL (Rattus norvegicus; [10]): 55800 mg/m3 | NEL (Rattus norvegicus; [10]): 11200 mg/m3 | LEL (Rattus norvegicus; [11]): 279000 mg/m3 | NEL (Rattus norvegicus; [11]): 55800 mg/m3 | LEL (Rattus norvegicus; [12]): 55800 mg/m3 | NEL (Rattus norvegicus; [12]): 11200 mg/m3
